Data taken from US9828339B2, “Biphenyl derivatives and methods for preparing same” (DONG-A ST CO., LTD, priority 2013, dated 2017).

Columns and labels:
[1] = test system: rhythmic bladder contractions; experiment: Rhythmic bladder contractions in rats (in vivo); set-up: species or system rat; details: 0.3 mpk, intravenous, female Sprague-Dawley rats; amplitude reduction of bladder contractions
Text: [Experimental Example 3] Experiment on Rhythmic Bladder Contractions in Rats (In Vivo)
Female Sprague-Dawley rat was halothane-anesthetized, and a polyethylene catheter was inserted through urethra lay down straight and fixed. Urine in bladder was excreted through the catheter by gently massaging abdomen of the rat, and then removed. A three-way stopcock was connected to the catheter and a pressure transducer was connected to one side of the three-way stopcock to measure pressure, and a syringe was installed at the other side to inject 37° C. of saline solution. The saline solution was slowly injected until regular bladder contractions occurred repeatedly. When regular bladder contractions occurred stably, test compounds were administered intravenously through the tail vein. Inhibitory effect of the test compounds was evaluated by measuring degree of amplitude reduction of bladder contractions.

Sprague-Dawley (SD) rats = experiment: Acute toxicity test for oral administration on rats; assay type: in vivo, rat; details: observed for 4 days
Protocol: [Experimental Example 4] Acute Toxicity Test for Oral Administration on Rats
In order to confirm acute toxicity of the compounds of the present invention, following experiment was conducted. A low-dose group, a medi-dose group and a high-dose group, wherein the compounds of Examples were administered 100 mg/kg, 300 mg/kg and 1000 mg/kg respectively, were prepared. Methyl cellulose solution (0.5%) was prepared and orally administered to 3 rats of each group (i.e. both sexes of 6-week old Sprague-Dawley (SD) rats; male rats in 142-143 g; female rats in 126.3-127.3 g) in a volume of 10 mL/kg. Mortality, clinical signs and weight and the like were measured for 4 days, and discovered approximate lethal dose (ALD) therefrom were explained in Table 30 below.

[2] = target: T1, human muscarinic M3 receptor (Homo sapiens (Human), UniProt P20309); experiment: Antagonism assay on human muscarinic M3 receptor (carbachol-induced intracellular calcium, FLIPR Calcium 5, transfected Cos-7 cells); assay type: cell-based; details: functional inhibitory constant; carbachol-induced intracellular calcium in Cos-7 cells transfected with human M3 receptor
Procedure, shortened: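 Cos-7 cells transfected with human M3 receptor plasmid, pre-treated 3 min with compound, then carbachol-stimulated; intracellular calcium read by FLIPR Calcium 5.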

[3] = target: T1, human muscarinic M3 receptor; experiment: Binding assay on human muscarinic M3 receptor ([3H]-methyl scopolamine displacement); details: membranes overexpressing human M3 receptor, Ki from IC50 by Cheng-Prusoff, read-out: Binding Affinity to M3 Receptor, Ki
Procedure, shortened: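 Displacement of [3H]-methyl scopolamine from membranes overexpressing human M3, in Tris-HCl, 25 °C, 120 min; filter-bound radioactivity counted. Nonspecific binding with 5 μM atropine; Ki from IC50 via Cheng-Prusoff.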

T1 sequence (P20309 whole entry): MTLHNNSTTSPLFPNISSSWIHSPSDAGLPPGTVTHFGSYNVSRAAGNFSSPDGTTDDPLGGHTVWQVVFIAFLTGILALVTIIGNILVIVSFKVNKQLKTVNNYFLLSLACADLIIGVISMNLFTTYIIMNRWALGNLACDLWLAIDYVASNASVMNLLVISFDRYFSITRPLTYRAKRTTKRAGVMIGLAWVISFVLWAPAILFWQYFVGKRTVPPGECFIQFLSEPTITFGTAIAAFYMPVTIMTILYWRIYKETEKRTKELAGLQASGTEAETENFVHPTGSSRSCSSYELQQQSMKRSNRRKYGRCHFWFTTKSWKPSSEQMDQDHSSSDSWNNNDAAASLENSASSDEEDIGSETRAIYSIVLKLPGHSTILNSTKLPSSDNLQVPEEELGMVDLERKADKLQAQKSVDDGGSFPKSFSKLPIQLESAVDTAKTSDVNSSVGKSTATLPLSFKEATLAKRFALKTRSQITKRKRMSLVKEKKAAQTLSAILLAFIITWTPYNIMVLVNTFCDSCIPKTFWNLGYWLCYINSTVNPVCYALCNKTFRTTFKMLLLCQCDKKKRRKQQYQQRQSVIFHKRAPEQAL

In the case of Cc1cccc(-c2ccccc2NC(=O)OCCC2CCCN2C)c1 (stereo not shown) [Example 15, 2-(1-methylpyrrolidin-2-yl)ethyl(3′-methyl-[1,1′-biphenyl]-2-yl)carbamate], the “Inhibition of Rhythmic bladder contraction in rats” value (from here on “Inhibition”) [1] is reported as 25.6 ± 2.2%, the “Approximate Lethal Dose (ALD)” value (Sprague-Dawley (SD) rats) is reported as over 1000 mg/kg and the Ki [2] is reported as 4.1 nM. The Ki [3] was 2.27 nM.
In the case of CN1CCCC1CCOC(=O)Nc1ccc(F)cc1-c1ccc(F)c(Cl)c1 (stereo not shown) [Example 53, 2-(1-methylpyrrolidin-2-yl)ethyl(3′-chloro-4′,5-difluoro-[1,1′-biphenyl]-2-yl)carbamate], the “Inhibition” value [1] is reported as 28.0 ± 5.0%, the “Approximate Lethal Dose (ALD)” value (Sprague-Dawley (SD) rats) is reported as over 1000 mg/kg and the Ki [2] is reported as 0.57 nM. It also gave a Ki [3] of 1.34 nM.
CN1CC[C@@H](COC(=O)Nc2ccccc2-c2ccccc2)C1 [Example 89, (R)-(1-methylpyrrolidin-3-yl)methyl [1,1′-biphenyl]-2-ylcarbamate] was tested, and the “Inhibition” value [1] was 33.9 ± 3.5%, the “Approximate Lethal Dose (ALD)” value (Sprague-Dawley (SD) rats) was over 1000 mg/kg and the Ki [2] was 0.16 nM. It also gave a Ki [3] of 2.43 nM.
In the case of CN1CC[C@H](COC(=O)Nc2ccccc2-c2ccccc2)C1 [Example 90, (S)-(1-methylpyrrolidin-3-yl)methyl [1,1′-biphenyl]-2-ylcarbamate], the “Inhibition” value [1] is reported as 27.4 ± 1.9%, the “Approximate Lethal Dose (ALD)” value (Sprague-Dawley (SD) rats) is reported as over 1000 mg/kg and the Ki [2] is reported as 0.17 nM. The Ki [3] was 1.97 nM.
CN1CC[C@@H](COC(=O)Nc2ccccc2-c2cc(F)cc(F)c2)C1 [Example 91, (R)-(1-methylpyrrolidin-3-yl)methyl (3′,5′-difluoro-[1,1′-biphenyl]-2-yl)carbamate] was tested, and the “Inhibition” value [1] was 25.2 ± 2.5%, the “Approximate Lethal Dose (ALD)” value (Sprague-Dawley (SD) rats) was over 1000 mg/kg and the Ki [2] was 1.32 nM. The Ki [3] was 4.5 nM.
Cc1cccc(-c2ccccc2NC(=O)OC[C@@H]2CCN(C)C2)c1 [Example 100, (R)-(1-methylpyrrolidin-3-yl)methyl(3′-methyl-[1,1′-biphenyl]-2-yl)carbamate] was tested, and the “Inhibition” value [1] was 26.0 ± 6.0%, the “Approximate Lethal Dose (ALD)” value (Sprague-Dawley (SD) rats) was over 1000 mg/kg and the Ki [2] was 0.64 nM. It also gave a Ki [3] of 2.43 nM.
With CN1CC[C@@H](COC(=O)Nc2ccccc2-c2ccc(F)c(Cl)c2)C1 [Example 136, (R)-(1-methylpyrrolidin-3-yl)-methyl (3′-chloro-4′-fluoro-[1,1′-biphenyl]-2-yl)carbamate] the “Inhibition” value [1] was 33.2 ± 4.0%, the “Approximate Lethal Dose (ALD)” value (Sprague-Dawley (SD) rats) was over 1000 mg/kg and the Ki [2] was 0.25 nM. It also gave a Ki [3] of 1.59 nM.
In the case of CN1CC[C@@H](COC(=O)Nc2ccc(F)cc2-c2ccc(F)c(Cl)c2)C1 [Example 143, (R)-(1-methylpyrrolidin-3-yl)methyl(3′-chloro-4′,5-difluoro-[1,1′-biphenyl]-2-yl)carbamate], the “Inhibition” value [1] is reported as 24.3 ± 5.5%, the “Approximate Lethal Dose (ALD)” value (Sprague-Dawley (SD) rats) is reported as over 1000 mg/kg and the Ki [2] is reported as 0.68 nM. The Ki [3] was 1.12 nM.
For CCN1CC[C@@H](COC(=O)Nc2ccccc2-c2ccc(F)c(Cl)c2)C1 [Example 150, (R)-(1-ethylpyrrolidin-3-yl)methyl (3′-chloro-4′-fluoro-[1,1′-biphenyl]-2-yl)carbamate], the “Inhibition” value [1] was 25.1 ± 2.5%, the “Approximate Lethal Dose (ALD)” value (Sprague-Dawley (SD) rats) was over 1000 mg/kg and the Ki [2] was 1.34 nM. The Ki [3] was 5.6 nM.
For Cc1cccc(-c2ccccc2NC(=O)OC[C@@H]2CCCN2C)c1 [Example 199, (S)-(1-methylpyrrolidin-2-yl)methyl(3′-methyl-[1,1′-biphenyl]-2-yl)carbamate], the “Inhibition” value [1] was 27.8 ± 4.5%, the “Approximate Lethal Dose (ALD)” value (Sprague-Dawley (SD) rats) was over 1000 mg/kg and the Ki [2] was 0.26 nM. The Ki [3] was 0.8 nM.
